Read-outs that look alike come from different tables or passages of the source.
Tests used:
Assay type in all cases: cell-based, human
H2030 = experiment: Non Small Cell Lung Cancer proliferation assay (Alamar Blue reduction), H2030; details: Homo sapiens, NCI-H2030, primary screening, 10 μM compound in 1% DMSO (v/v)
Method: (§1) These cells have a doubling time of 1-2 days. All cell types are adherent and grow in colonies. The cells should be kept at a density between 50,000 cells/mL -500,000 cells/mL to provide for optimum growth and adequate nutrition. The cell line should be maintained at 37° C. in a humidified atmosphere with 5% CO2 in a sterile cell culture incubator.
(§2) Non Small Cell Lung Cancer Proliferation Assay.
(§3) High Controls for this assay are made by treating Non Small Cell Lung Cancer cells with 5 ul of 10% DMSO. [Final concentration in this assay is 1% DMSO].
(§4) Important Note: All compounds for testing in this assay should be done at the final concentration of 1% DMSO.
(§5) After addition, the cells are placed in cell culture incubator at 37° C. for 48 hours for complete treatment.
(§6) After drug treatment, cytotoxicity is measured by Alamar Blue reduction.
(§7) The cells are incubated for 48 hours at 37° C. to complete the Alamar Blue reduction.
(§8) The final step in the assay is to measure the amount of Alamar Blue reduction. […] The Alamar Blue fluorescence is measured at an excitation of 530 nm and emission of 590 nm.
(§9) For the NSCLC project, the cell based assay was screened against a small molecule library of approximately 200,000 compounds. The compound library is stored in our automated robotic freezer (Biophile) at −20° C. in 100% DMSO. Compound freeze and thaw cycles are kept to a minimum. […] This assay was performed on a fully automated linear track robotic platform (CRS F3 Robot System, Thermo Electron Corp., Ontario, Canada) utilizing several integrated peripherals for plate handling, liquid dispensing, and readout detection. […] The microplates are then placed at 37° C. for 48 hours to complete treatment of cells with compounds. Next, 5 ul of alamar blue was added using a liquid dispenser (Flexprop Precision Dispenser, Perkin Elmer, Mass., USA) and incubated for 48 hours at 37° C. The alamar blue prompt fluorescence was measured on Victor V (Victor^3 V, Perkin Elmer, Mass., USA) and output data files were loaded into ORIS (Oncology Research Informatics System, MSKCC, NY, USA), a screening data acquisition and analysis platform.
(§10) The dose response studies were done with the following standard procedure. First, the cells were counted and dispensed at 250 cells/well into 384-well microplates with compound. The cells were incubated for 48 hours at 37 C to complete treatment, and then alamar blue was added for an additional 48 hours. Finally, alamar blue reduction was measured and the data was loaded into ORIS, our data screening acquisition platform.

H1650 = experiment: Non Small Cell Lung Cancer proliferation assay (Alamar Blue reduction), H1650; details: Homo sapiens, NCI-H1650, primary screening, 10 μM compound in 1% DMSO (v/v)
Method: as §1, §2, §3, §4, §5, §6, §7, §8, §9, §10

H3255 = experiment: Non Small Cell Lung Cancer proliferation assay (Alamar Blue reduction), H3255; details: Homo sapiens, NCI-H3255, primary screening, 10 μM compound in 1% DMSO (v/v)
Method: as §1, §2, §3, §4, §5, §6, §7, §8, §9, §10

H1975 = experiment: Non Small Cell Lung Cancer proliferation assay (Alamar Blue reduction), H1975; details: Homo sapiens, NCI-H1975, primary screening, 10 μM compound in 1% DMSO (v/v)
Method: as §1, §2, §3, §4, §5, §6, §7, §8, §9, §10

[1] = H2030, read-out: PRIMARY HTS [%] H2030 (percentage inhibition)
[2] = H1650, read-out: PRIMARY HTS [%] H1650 (percentage inhibition)
[3] = H3255, read-out: PRIMARY HTS [%] H3255 (percentage inhibition)
[4] = H1975, read-out: PRIMARY HTS [%] H1975 (percentage inhibition)

| Compound | inhibition at 10 µM (H2030; [1]) [%] | inhibition at 10 µM (H1650; [2]) [%] | inhibition at 10 µM (H3255; [3]) [%] | inhibition at 10 µM (H1975; [4]) [%] | inhibition at 10 µM (H2030; read-out: percentage inhibition H2030) [%] | inhibition at 10 µM (H1650; read-out: percentage inhibition H1650) [%] | inhibition at 10 µM (H3255; read-out: percentage inhibition H3255) [%] | inhibition at 10 µM (H1975; read-out: percentage inhibition H1975) [%] |
| --- | --- | --- | --- | --- | --- | --- | --- | --- |
| O=C(Nc1c(Cl)cccc1Cl)c1cc2ccccc2o1 [compound 60998] | 1 | 10 | 1 | 19 |  |  |  |  |
| Cc1ccc(C(=O)Nc2ccc(NC(=O)c3ccco3)c(C)c2)c(Cl)c1 [compound 61302] | -2 | 13 | 2 | 16 |  |  |  |  |
| O=C(Nc1ccc(Cl)cc1F)c1ccco1 [compound 66598] | 0 | 8 | 1 | 8 |  |  |  |  |
| Cc1ccc(C(=O)Nc2cc([N+](=O)[O-])ccc2C)o1 [compound 66776] | -3 | 13 | 2 | 2 |  |  |  |  |
| O=C(Nc1ccc(NC(=O)c2ccc(Cl)cc2Cl)cc1)c1ccco1 [compound 72456] | 8 | 12 | 7 | 9 |  |  |  |  |
| O=C(Nc1ccc(Cl)cc1O)c1ccco1 [compound 75072] | 5 | 13 | 1 | 0 |  |  |  |  |
| O=C(Nc1ccc(NC(=O)c2ccco2)cc1)c1ccc(-c2ccccc2)cc1 [compound 76739] | 3 | 13 | 5 | -9 |  |  |  |  |
| O=C(Nc1ccc(NC(=O)c2ccco2)c(O)c1)c1ccccc1 [compound 76839] | -6 | 20 | 2 | 3 |  |  |  |  |
| O=C(Nc1ccc(Cl)cc1)c1cc2c(ccc3ccccc32)o1 [compound 77021] | -1 | 16 | 4 | -11 |  |  |  |  |
| CC1CN(C(=O)c2ccc([N+](=O)[O-])o2)CC(C)O1 (stereo not drawn) [compound 77942] | 6 | 14 | 7 | -2 |  |  |  |  |
| O=C(c1ccc([N+](=O)[O-])o1)N1CCOCC1 [compound 77953] | -6 | 12 | 0 | -1 |  |  |  |  |
| O=C(Nc1cccc(Cl)c1)c1ccco1 [compound 78107] | 4 | 14 | 6 | -14 |  |  |  |  |
| O=C(Nc1ccc(Cl)cc1)c1ccco1 [compound 78158] | 6 | 20 | 4 | -2 |  |  |  |  |
| CCN(Cc1ccccc1)C(=O)c1ccc([N+](=O)[O-])o1 [compound 78535] | 26 | 41 | 8 | -2 |  |  |  |  |
| Cc1cc([N+](=O)[O-])ccc1NC(=O)c1ccco1 [compound 79434] | 0 | 4 | 4 | -7 |  |  |  |  |
| Nc1ccc(NC(=O)c2ccco2)c(Cl)c1 [compound 82456] | -2 | 6 | 2 | -15 |  |  |  |  |
| Cc1cc(Cl)ccc1NC(=O)CN1CCN(C(=O)c2ccco2)CC1 [compound 83809] | 2 | 22 | 2 | -10 |  |  |  |  |
| Cc1cccc(NC(=O)c2cc3cc([N+](=O)[O-])ccc3o2)c1 [compound 84487] | 5 | 27 | 3 | -5 |  |  |  |  |

| Compound | inhibition at 10 µM (H2030; [1]) [%] | inhibition at 10 µM (H1650; [2]) [%] | inhibition at 10 µM (H3255; [3]) [%] | inhibition at 10 µM (H1975; [4]) [%] | inhibition at 10 µM (H2030; read-out: percentage inhibition H2030) [%] | inhibition at 10 µM (H1650; read-out: percentage inhibition H1650) [%] | inhibition at 10 µM (H3255; read-out: percentage inhibition H3255) [%] | inhibition at 10 µM (H1975; read-out: percentage inhibition H1975) [%] |
| --- | --- | --- | --- | --- | --- | --- | --- | --- |
| O=C(Nc1cccc([N+](=O)[O-])c1)c1ccco1 [compound 87246] | 9 | 8 | 5 | -3 |  |  |  |  |
| O=C(Nc1ccccc1C(=O)NCc1ccc(Cl)cc1)c1ccco1 [compound 88935] | -1 | -4 | -2 | -10 |  |  |  |  |
| CC(C)(C)NC(=O)c1ccc(NC(=O)c2ccco2)cc1 [compound 91753] | -5 | -3 | -1 | -22 |  |  |  |  |
| O=C(Nc1ccc(N2CCN(Cc3ccccc3Cl)CC2)cc1)c1ccco1 [compound 92553] | 5 | 2 | 1 | -3 |  |  |  |  |
| O=C(Nc1ccc(N2CCN(Cc3ccccc3)CC2)cc1)c1ccco1 [compound 93911] | -3 | -4 | -1 | -22 |  |  |  |  |
| Cc1ccc(C(=O)N2CCN(c3ccc(NC(=O)c4ccco4)cc3)CC2)cc1 [compound 95436] | 2 | 2 | -3 | -12 |  |  |  |  |
| Cc1ccc(C(=O)Nc2ccc(NC(=O)c3ccco3)cc2)c(C)c1 [compound 97216] | -4 | -1 | 3 | -4 |  |  |  |  |
| O=C(Nc1ccc(N2CCN(C(=O)c3ccco3)CC2)cc1)c1ccco1 [compound 97253] | -5 | -2 | -3 | -15 |  |  |  |  |
| O=C(c1ccc([N+](=O)[O-])o1)N(c1ccccc1)c1ccccc1 [compound 98705] | 8 | -8 | 9 | 14 |  |  |  |  |
| O=C(c1ccc([N+](=O)[O-])o1)N1CCc2ccccc21 [compound 100403] | 3 | -13 | 2 | -13 |  |  |  |  |
| O=[N+]([O-])c1ccc(CN2CCN(c3ccccc3)CC2)o1 [compound 100483] | -1 | -1 | 1 | -8 |  |  |  |  |
| O=[N+]([O-])c1ccc(CN2CCN(Cc3ccccc3)CC2)o1 [compound 100507] | 7 | -3 | 1 | -15 |  |  |  |  |
| COc1ccc(N2CCN(Cc3ccc([N+](=O)[O-])o3)CC2)cc1 [compound 100588] | 5 | -5 | 4 | -14 |  |  |  |  |
| CN1CCN(Cc2ccc([N+](=O)[O-])o2)CC1 [compound 100652] | -6 | -12 | -3 | -2 |  |  |  |  |
| O=[N+]([O-])c1ccc(CN2CCN(c3ccccc3F)CC2)o1 [compound 100792] | 43 | -5 | 1 | -9 |  |  |  |  |
| Cc1cccc(N2CCN(Cc3ccc([N+](=O)[O-])o3)CC2)c1C [compound 101070] | 5 | 2 | 1 | -18 |  |  |  |  |
| O=C(Nc1ccc(-c2ccc([N+](=O)[O-])cc2)cc1)c1ccco1 [compound 102031] | -1 | -2 | 3 | -11 |  |  |  |  |
| O=c1c(Cl)c(Cl)cnn1-c1ccc([N+](=O)[O-])cc1 [compound 103529] |  |  |  |  | 15 | -13 | 1 | 97 |

— patent US20100210649A1, “PYRIDAZINONES AND FURAN-CONTAINING COMPOUNDS” (Sloan-Kettering Institute for Cancer Research, priority 2006, published 2010)
